Where a name gives a salt, the structure may show the parent alone.
Key:
Type in all cases: biochemical
[1] = molecular target: β-N-acetylglucosaminidase (from jack bean); assay: Inhibition assay against commercial β-N-acetylglucosaminidase (jack bean), p-nitrophenyl N-acetyl-β-D-glucosaminide substrate; details: pH 5.5, 37° C.; average of three determinations ± s.e.m.; NI = no inhibition detected at 200 μM; read-out: Jack beans Hex
Protocol: (§1) Inhibition Assays Against Commercial β-N-acetylglucosaminidases
(§2) Inhibition constant (Ki) values were determined by spectrophotometrically measuring the residual hydrolytic activities of the glycosidases against p-nitrophenyl N-acetyl-β-D-glucosaminide. […] Each assay was performed in phosphate-citrate buffer and the reactions were initiated by addition of the enzyme to a solution of the substrate in the absence or presence of various inhibitor concentrations. The mixture was incubated for 10-30 min at 37° C. and the reaction was quenched by addition of 1 M Na2CO3. Reaction times were appropriate to obtain 10-20% conversion of the substrate in order to achieve linear rates. The absorbance of the resulting mixture was determined at 405 nm. Approximate values of Ki were determined using a fixed concentration of substrate (around the Km value for the different glycosidases) and various inhibitor concentrations. Full Ki determinations and enzyme inhibition mode were determined from the slope of Lineweaver-Burk plots and double reciprocal analysis using a Microsoft Office Excel 2007 program.

[2] = molecular target: β-N-acetylglucosaminidase (from bovine kidney); assay: Inhibition assay against commercial β-N-acetylglucosaminidase (bovine kidney), p-nitrophenyl N-acetyl-β-D-glucosaminide substrate; details: pH 5.5, 37° C.; average of three determinations ± s.e.m.; NI = no inhibition detected at 200 μM; read-out: Bovine kidney Hex
Protocol: as §1, §2

[3] = molecular target: β-N-acetylglucosaminidase (from human placenta); assay: Inhibition assay against commercial β-N-acetylglucosaminidase (human placenta), p-nitrophenyl N-acetyl-β-D-glucosaminide substrate; details: pH 5.5, 37° C.; average of three determinations ± s.e.m.; read-out: Human placenta Hex
Protocol: as §1, §2

[4] = molecular target: T1, hOGA (Homo sapiens, UniProt O60502); assay: Inhibition assay against hOGA, resorufin N-acetyl-β-D-glucosaminide fluorescence; details: 0.2 nM hOGA, 25 μM substrate, pH 7.1; Morrison Ki
T1 sequence (O60502 1-916): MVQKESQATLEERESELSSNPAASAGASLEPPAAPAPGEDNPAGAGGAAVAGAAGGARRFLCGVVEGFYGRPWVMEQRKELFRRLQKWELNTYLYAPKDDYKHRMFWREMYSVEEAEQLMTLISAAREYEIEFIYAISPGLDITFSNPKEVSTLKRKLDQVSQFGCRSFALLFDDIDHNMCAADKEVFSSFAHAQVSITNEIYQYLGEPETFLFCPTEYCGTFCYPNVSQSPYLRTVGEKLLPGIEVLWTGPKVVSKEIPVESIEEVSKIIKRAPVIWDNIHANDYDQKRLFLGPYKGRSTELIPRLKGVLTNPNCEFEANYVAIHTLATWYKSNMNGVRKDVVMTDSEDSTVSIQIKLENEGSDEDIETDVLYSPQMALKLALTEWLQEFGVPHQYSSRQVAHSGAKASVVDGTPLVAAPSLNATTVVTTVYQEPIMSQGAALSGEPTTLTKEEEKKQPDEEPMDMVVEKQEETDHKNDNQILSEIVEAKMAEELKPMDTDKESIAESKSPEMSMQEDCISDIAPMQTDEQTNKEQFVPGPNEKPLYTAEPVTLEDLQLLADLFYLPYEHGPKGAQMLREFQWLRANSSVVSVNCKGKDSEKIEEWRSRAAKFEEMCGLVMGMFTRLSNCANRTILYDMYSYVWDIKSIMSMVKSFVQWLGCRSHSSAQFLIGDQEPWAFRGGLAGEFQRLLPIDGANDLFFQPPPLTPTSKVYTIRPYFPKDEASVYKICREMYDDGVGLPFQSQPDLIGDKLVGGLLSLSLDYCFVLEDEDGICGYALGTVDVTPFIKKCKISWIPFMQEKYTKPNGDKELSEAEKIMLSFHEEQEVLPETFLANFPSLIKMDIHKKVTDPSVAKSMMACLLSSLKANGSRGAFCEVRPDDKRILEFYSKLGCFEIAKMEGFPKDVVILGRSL
Protocol: Inhibition Assays Against hOGA
Km=25 μM was measured with these conditions. Inhibition assays were run at 0.2 nM [hOGA] in the same buffer, in the presence or absence of various concentrations of inhibitors and at a fixed substrate concentration of 25 μM and 1% DMSO. First, inhibitor was serially diluted to the desired range of concentrations in 2% DMSO buffer. Next, 50 μL of inhibitor solutions at various concentrations in 2% DMSO Buffer was added to 50 μL of 0.8 nM enzyme and allowed to incubate at 25° C. for 5 minutes. 100 uL of 50 μM and 1% DMSO substrate was then added and reaction mixture was immediately mixed and aliquoted in 45 μL triplicates to a CORNING 384 well black plate. Fluorescence signal was measured continuously for 20 minutes at 37° C. in a BioTek Neo 2 Plate reader set at excitation and emission wavelengths of 572 and 610 nm, respectively. Max reaction rates for all inhibitor concentrations were calculated within Gen5 BioTek reader software. % Activity was subsequently calculated for each inhibitor concentration against the max reaction rate of uninhibited hOGA. GraphPad Prism 2016 was used to approximate the Morrison Ki values for each inhibitor.

[5] = molecular target: T2, Recombinant Human Hexosaminidase A (HexA) (Homo sapiens, UniProt P06865); assay: Inhibition assay against rhHexA, 4-methylumbelliferone-N-acetyl-β-D-glucosaminide fluorescence; details: IC50 for lysosomal hHexA; NI = no inhibition detected at 200 μM
T2 construct: purchased R&D Systems 6237-GH-020
T2 sequence (P06865 89-529): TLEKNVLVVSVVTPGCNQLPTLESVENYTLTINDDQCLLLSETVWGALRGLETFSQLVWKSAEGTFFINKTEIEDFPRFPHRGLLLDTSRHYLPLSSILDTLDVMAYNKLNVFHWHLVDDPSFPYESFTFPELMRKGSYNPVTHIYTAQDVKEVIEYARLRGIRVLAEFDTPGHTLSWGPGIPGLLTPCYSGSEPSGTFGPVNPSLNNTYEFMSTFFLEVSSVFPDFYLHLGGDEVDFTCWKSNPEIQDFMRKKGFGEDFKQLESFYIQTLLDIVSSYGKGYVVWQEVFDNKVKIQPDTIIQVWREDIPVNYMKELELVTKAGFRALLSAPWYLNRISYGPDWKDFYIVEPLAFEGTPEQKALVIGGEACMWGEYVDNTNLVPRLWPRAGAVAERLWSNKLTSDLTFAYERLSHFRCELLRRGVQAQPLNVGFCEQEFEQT
Protocol: Inhibition Assays Against rhHexA
Human Hexosaminidase A (HexA) enzyme, purchased from R&D Systems (cat# 6237-GH-020), were determined by measuring the fluorescent signal corresponding to the rate of hydrolytic activity against the commercially available artificial substrate, 4-Methylumbelliferone-N-acetyl-β-D-glucosaminide. HexA activity assays were performed in a buffer of 100 mM sodium citrate, 250 NaCl, pH 4.5 and 1.0 nM [HexA], then stopped after 20 minutes with a solution of 1.0 M Tris, pH 9.5 to enhance fluorescent signal. Preliminary experiments have shown that reaction rates are linear for 20 minutes after substrate addition, and that 1.0 M Tris at pH 9.5 is sufficient for stopping activity, as signal is stable after stopping. Inhibition assays were run in the presence or absence of various concentrations of inhibitors and at a fixed substrate concentration of 100 μM and 1% DMSO. First, inhibitor was serially diluted to the desired range of concentrations in 2% DMSO buffer. Next, 25 μL, of inhibitor solutions at various concentrations in 2% DMSO Buffer was added to 25 μL, of 4.0 nM enzyme and allowed to incubate at 25° C. for 5 minutes. 50 μL of 200 μM and 1% DMSO substrate was then added and allowed to react for 20 minutes. 100 μL of stop solution was added to reaction mixture, and immediately mixed and aliquoted in 45 μL triplicates to a CORNING 384 well black plate. Fluorescence signal was measured in a BioTek Neo 2 Plate reader set at excitation and emission wavelengths of 355 and 450 nm, respectively. % Activity was subsequently calculated for each inhibitor concentration against the fluorescence signal of uninhibited HexA. […]

Row | SMILES | Ki [1] [nM] | Ki [2] [nM] | Ki [3] [nM] | Ki [4] [nM] | IC50 [5] [nM]
1 | CCCCN=C1SCC2C(O)C(O)C(NC(C)=O)CN12 (stereo not drawn) [Compound 1, 2-Acetamido-5-N,6-S-(N′-butyliminomethylidene)-1,2-dideoxy-6-thionojirimycin Hydrochloride] | 850 ± 60 | 570 ± 40 | 240 ± 20 | 24.1 | 990
2 | CC(=O)N[C@H]1CN2/C(=N/c3ccccc3)SC[C@@H]2[C@@H](O)[C@@H]1O [Compound 3, 2-Acetamido-1,2-dideoxy-5-N,6-S-(N′-phenyliminomethylidene)-6-thionojirimycin Hydrochloride] | 2800 ± 200 | 700 ± 50 | 580 ± 40 | 399 | 410
3 | CC(=O)N[C@H]1CN2/C(=N/Cc3cccc4ccccc34)SC[C@@H]2[C@@H](O)[C@@H]1O [Compound 5, 2-Acetamido-5-N,6-S-(N′-1-naphthylmethyliminomethylidene)-1,2-dideoxy-6-thionojirimycin Hydrochloride] | 2400 ± 200 | 890 ± 800 |  | 0.292 | 
4 | COc1ccc(C/N=C2\SC[C@@H]3[C@@H](O)[C@H](O)[C@@H](NC(C)=O)CN23)cc1 [Compound 7, 2-N-Acetyl-5-N,6-S-(N′-p-methoxybenzyliminomethylidene)-1,2-dideoxy-6-thionojirimycin Hydrochloride] | 2200 ± 100 | 1200 ± 100 | 730 ± 40 | 27.8 | 
5 | CC(=O)N[C@H]1CN2/C(=N/Cc3ccccc3CN=[N+]=[N-])SC[C@@H]2[C@@H](O)[C@@H]1O [Compound 9, 2-Acetamido-5-N,6-S-(N′-o-azidomethylbenzyliminomethylidene)-1,2-dideoxy-6-thionojirimycin Hydrochloride] | 3070 ± 300 | 910 ± 90 |  | 0.278 | 
6 | CC(=O)N[C@H]1CN2/C(=N/CCc3ccccc3)SC[C@@H]2[C@@H](O)[C@@H]1O [Compound 12, 2-Acetamido-5-N,6-S-(N′-2-phenylethyliminomethylidene)-1,2-dideoxy-6-thionojirimycin Hydrochloride] | 2450 ± 320 | 1420 ± 120 |  | 0.918 | 
7 | CC(=O)N[C@H]1CN2/C(=N/Cc3ccc(F)cc3)SC[C@@H]2[C@@H](O)[C@@H]1O [Compound 6, 2-N-Acetyl-5-N,6-S-(N′-p-fluorobenzyliminomethylidene)-1,2-dideoxy-6-thionojirimycin Hydrochloride] | 3200 ± 300 | 1500 ± 200 | 280 ± 20 | 53.8 | 
8 | CC(=O)N[C@H]1CN2/C(=N/Cc3ccc(C(F)(F)F)cc3)SC[C@@H]2[C@@H](O)[C@@H]1O [Compound 8, 2-Acetamido-5-N,6-S-(N′-p-trifluoromethylbenzyliminomethylidene)-1,2-dideoxy-6-thionojirimycin hydrochloride] | 1500 ± 100 | 430 ± 40 | 400 ± 30 | 47.7 | 
9 | CC(=O)N[C@H]1CN2/C(=N/Cc3cccc(CN=[N+]=[N-])c3)SC[C@@H]2[C@@H](O)[C@@H]1O [Compound 10, 2-Acetamido-5-N,6-S-(N′-m-azidomethylbenzyliminomethylidene)-1,2-dideoxy-6-thionojirimycin Hydrochloride] | 3130 ± 800 | 830 ± 60 |  | 0.223 | 
10 | CCCCCCCCN=C1SCC2C(O)C(O)C(NC(C)=O)CN12 (stereo not drawn) [Compound 2, 2-Acetamido-1,2-dideoxy-5-N,6-S-(N′-octyliminomethylidene)-6-thionojirimycin Hydrochloride] | 1300 ± 100 | 190 ± 20 | 240 ± 20 | 20.2 | 580
11 | CC(=O)N[C@H]1CN2/C(=N/Cc3ccc(CN=[N+]=[N-])cc3)SC[C@@H]2[C@@H](O)[C@@H]1O [Compound 11, 2-Acetamido-5-N,6-S-(N′-p-azidomethylbenzyliminomethylidene)-1,2-dideoxy-6-thionojirimycin Hydrochloride] | 3400 ± 800 | 720 ± 50 |  | 0.438 | 

Source: patent US20230391796A1, “GLYCOSIDASE INHIBITORS AND USES THEREOF” (UNIVERSIDAD DE SEVILLA (US) -UNIVERSITY OF SEVILLE (US), priority 2020, published 2023)
